Where two headings read alike, the source gives them in different places.
Assays:
[1] = tested on: pre-constricted rat aortic segments; experiment: vasodilation of phenylephrine pre-constricted aortic rings in myograph; set-up: species or system male Sprague-Dawley Rats; conditions: for relaxation of pre-constricted rat aortic segments: phenylephrine 0.1 μM pre-constriction, after 4-hour incubation with 44 mM glucose
Description: To determine the effect of lipoic acid and prolyl lipoic acid (Formula (III)) on vasodilation, aortas from male Sprague-Dawley Rats (n=2) were utilized. Briefly, each animal was first sacrificed and their aortas were removed. The aortas were then incubated in phosphate-buffered-saline (PBS) containing 44 mM glucose for 4 hours. Eight 5-mm ring segments of thoracic aorta were then suspended in a myograph chamber filled with a Krebs buffer of the following composition: NaCl, 118.3; KCl, 4.69; CaCl2, 1.87; MgSO4, 1.20; K2HPO4, 1.03; NaHCO3 25.0; and glucose 11.1; all values in mM, pH 7.40. During the following hour, the resting tension was increased to optimize constrictions due to exposure to KCl. The vessel segments were then pre-constricted with phenylephrine (PE; 0.1 μM) and were subjected to prolyl lipoic acid (Formula (III)) or lipoic acid. Vasodilation in the rat aortic rings in response to L-prolyl lipoic acid (1×10^−4 M) or lipoic acid (1×10^−4 M) (both dissolved in aqueous media) was then measured after a 4-hour incubation with glucose (44 mM). Endothelial cell function in the aortic rings was also measured by pre-constricting the aortic rings to the EC50 of phenylephrine and then subjecting the rings to a maximum acetylcholine dose (10^−5M).

[2] = molecular target: Angiotensin Converting Enzyme (ACE) (UniProt P12822); experiment: fluorimetric ACE assay with HHL substrate, 96-well format; format: biochemical; conditions: for reduction of ACE activity (formation of L-histidyl-L-leucine): compound incubated with enzyme at 37° C. for 30 min
Angiotensin Converting Enzyme (ACE), sequence (P12822 whole entry): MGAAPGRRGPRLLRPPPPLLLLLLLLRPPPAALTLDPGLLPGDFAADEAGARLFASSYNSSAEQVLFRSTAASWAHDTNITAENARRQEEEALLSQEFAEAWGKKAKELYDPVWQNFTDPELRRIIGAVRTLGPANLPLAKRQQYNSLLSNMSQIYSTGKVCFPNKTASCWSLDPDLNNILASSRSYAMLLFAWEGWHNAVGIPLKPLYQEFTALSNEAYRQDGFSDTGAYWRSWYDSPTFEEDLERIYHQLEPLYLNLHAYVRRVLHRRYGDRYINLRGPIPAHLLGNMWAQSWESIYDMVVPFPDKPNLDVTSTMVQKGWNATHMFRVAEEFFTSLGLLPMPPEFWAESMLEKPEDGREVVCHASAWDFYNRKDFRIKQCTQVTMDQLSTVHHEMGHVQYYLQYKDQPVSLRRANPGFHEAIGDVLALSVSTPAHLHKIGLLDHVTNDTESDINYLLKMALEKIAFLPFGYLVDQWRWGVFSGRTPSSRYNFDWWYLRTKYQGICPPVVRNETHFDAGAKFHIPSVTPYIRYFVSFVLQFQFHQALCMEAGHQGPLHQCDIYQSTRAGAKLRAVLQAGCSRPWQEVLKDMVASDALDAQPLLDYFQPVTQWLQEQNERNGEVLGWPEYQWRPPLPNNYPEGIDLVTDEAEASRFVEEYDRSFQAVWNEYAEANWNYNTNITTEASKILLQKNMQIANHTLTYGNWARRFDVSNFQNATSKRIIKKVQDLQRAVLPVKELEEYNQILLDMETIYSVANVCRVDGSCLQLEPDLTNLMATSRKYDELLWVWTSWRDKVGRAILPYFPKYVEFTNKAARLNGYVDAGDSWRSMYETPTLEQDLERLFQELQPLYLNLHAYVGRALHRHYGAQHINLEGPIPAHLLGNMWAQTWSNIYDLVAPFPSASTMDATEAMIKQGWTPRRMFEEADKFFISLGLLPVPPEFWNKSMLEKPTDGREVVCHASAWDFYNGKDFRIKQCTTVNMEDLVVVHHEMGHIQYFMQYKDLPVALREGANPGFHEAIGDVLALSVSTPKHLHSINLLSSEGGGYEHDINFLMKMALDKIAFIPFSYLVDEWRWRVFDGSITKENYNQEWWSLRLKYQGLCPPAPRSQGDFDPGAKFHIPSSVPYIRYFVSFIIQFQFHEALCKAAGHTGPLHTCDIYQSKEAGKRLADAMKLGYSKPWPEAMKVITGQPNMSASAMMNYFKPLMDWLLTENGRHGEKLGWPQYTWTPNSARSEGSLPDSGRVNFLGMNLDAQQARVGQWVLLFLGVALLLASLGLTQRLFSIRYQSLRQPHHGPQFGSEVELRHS
Description: To determine whether the compounds of the presently-disclosed subject matter were capable of reducing the enzymatic activity of Angiotensin Converting Enzyme (ACE), an ACE assay was carried out according to the standard protocols (see, e.g., Schwager, et al. A high-throughput fluorimetric assay for angiotensin I-converting enzyme, Nature Protocols, 2006; 1 (4): 1961-1964, which is incorporated herein by this reference). The ACE assay involved a fluorimetric procedure in which the substrate hippury-L-histidyl-L-leucine (HHL) was used, and the fluorescent adduct of the enzyme-catalyzed product L-histidyl-L-leucine was quantified fluorimetrically. […] The results from the assay were analyzed in a 96-well plate reader with each concentration measured in triplicate.
Briefly, in a total of 250 μL assay volume, 10 μL of ACE enzyme (Sigma Chemical Co., St. Louis, Mo.) and 10 μL of either 1-(6,8-dimercaptooctanyl)pyrrolidine-2-carboxylic acid or prolyl lipoic acid (Formula (III) was added. Both compounds were incubated with enzyme at 37° C. for 30 min. The ACE substrate HHL, 6 μL in buffer, was then added to each well followed by incubation at 45° C. for 30 min. 170 μL of 0.3M sodium hydroxide solution was added to above solution followed by the addition of phalaldehyde solution in methanol. The mixture was then allowed to shake for 5 min. This step was followed by the addition of 32 μL of 2N hydrochloric acid to each well and subsequent measurement of the fluorescence at an excitation wavelength of 360 nm and an emission wavelength of 480 nm. Three controls were used to compare the readings, with the controls including wells without the enzyme, wells without the compounds, and wells without the HHL enzymatic substrate.
To further examine the IC50 value in relation to the absolute amounts of thiol groups of the 1-(6,8-dimercaptooctanyl)pyrrolidine-2-carboxylic acid compound, however, the amount of thiol groups in the reaction mixtures was also measured according to Ellman's method (see, e.g. Simpson R J, Estimation of free thiols and disulfide bonds using Ellman's reagent, CSHL Press, Cold Spring Harbor, N.Y., 2003; and, Ellman G L, Tissue sulfhydral groups, Arch. Biochem. Biophys., 1959; 82: 70-77, each of which are incorporated herein by this reference). […] The TNB^2− can then be quantified in a spectrophotometer by measuring the absorbance of visible light at 412 nm, using an extinction coefficient of 14,150M^−1 cm^−1 for dilute buffer solutions, and a coefficient of 13,700 M^−1 cm^−1 for high salt concentrations, such as 6 M guanidinium hydrochloride or 8 M urea. […] The absorbance was measured at 412 nm. […]

[3] = tested on: spontaneously hypertensive stroke prone rats (SHRSP); experiment: blood pressure by intra-arterial catheter / radio-telemetry in hypertension model; format: in vivo, rat
Text: To determine the effect of prolyl lipoic acid (Formula (III)) in an animal model of hypertension, spontaneously hypertensive stroke prone rats (SHRSP) were first procured from Charles River at the age of 6 weeks (Charles River Laboratories, Wilmington, Mass., U.S.A.). After a period of acclimatization for 4 weeks, the rats were then implanted with intra-arterial catheters in the abdominal aorta along with a radio-telemetry monitoring device to assess systolic blood pressure. Briefly, to implant the radio-telemetry devices, the operative procedure involved anesthetizing the animals with 375 mg/kg of 2,2,2-tribromoethanol (Sigma Chemical Co., St. Louis, Mo.). An incision was then made in the abdomen and the aorta was exposed. A 0.4 mm catheter attached to a combination pressure transducer, transmitter, and battery, all encapsulated in a implantable micro-miniature electronic monitor (PA-C20, Data Sciences International, St. Paul, Minn.), was then inserted.
Following implantation of the radio-telemetry devices, the animals were allowed to recover and the aortic pressure of each animal was monitored continuously. Once the animals sufficiently recovered, the rats then received 50 mg/kg of prolyl lipoic acid, dissolved in aqueous media, in a single dose. The blood pressures were then measured over a period of 12 hours and compared to the previous 12 hour period. […]
During the 6 week experimental period, blood pressure measurements were performed in a sub-group of 4 animals randomized to prolyl lipoic acid by intra-arterial catheter placement in the infra-renal aorta and acute administration of the prolyl lipoic acid prior to administration of drug. Additionally, four SHRSP rats (12 weeks old) were implanted with radio-telemetry transmitters (DataSciences Inc., St. Paul, Minn.) into their abdominal aortas and blood pressure was measured using the DSI system (DataSciences Inc.). In these later experiments, blood pressure was recorded continuously over 24-hour periods and reported as the change in blood pressure in the 12-hour period following the administration of the agent.

[4] = tested on: spontaneously hypertensive stroke prone rats (SHRSP); experiment: histology of organ sections (H&E wall thickness, CD68 staining) after 6 weeks of treatment; format: in vivo, rat; conditions: 50 mg/kg daily IP
Description: (§1) To further examine the effects of prolyl lipoic acid (Formula (III)) on hypertension, the effect of prolyl lipoic acid was examined in spontaneously hypertensive rats over a longer time period. Briefly, spontaneously hypertensive rats (SHRSP rats, 10 weeks of age, n=10/group) were randomized to placebo or prolyl lipoic acid (50 mg/kg) groups for a duration of 6 weeks. The animals were housed 2 to a cage and were given Harlan-Teklad Laboratory Rodent Diet ad libitum (Harlan Laboratories, Indianapolis, Ind.). Prolyl lipoic acid or saline placebo was administered to the rats by daily intraperitoneal (IP) dosing.
Additionally, four to eight sections of each organ were stained with CD68 or H&E for 10 animals (5 in each group) and images were obtained at 200× by bright-field microscopy. MetaMorph software was used for automated thresholding. The percentage of thresholded area of the picture was recorded and reported. Additionally, about 12 organ sections per rat were prepared for 10 of the rats (5 in each group). These sections were 5 microns in size and were stained with hematoxylin and eosin (H&E). Images were obtained at 40× (using bright-field microscopy and analyzed using MetaMorph software. For each image, the external elastic lamina of the aorta was traced using a drawing tool, and this area was logged. The luminal area was also measured. Thus, the tunica intima and tunica media were included in these measurements, not tunica adventitia. The wall thickness was calculated by subtracting the luminal area from the wall area.

[5] = tested on: spontaneously hypertensive stroke prone rats (SHRSP); experiment: endothelial function by myography of aortic segments after 6 weeks of treatment; format: in vivo, rat; conditions: 50 mg/kg daily IP, pre-contraction 0.3 μM phenylephrine
Description: as §1
Following the completion of the six week period, the animals were euthanized at week 17 by lethal pentobarbital injection and tissues were removed from the animal. Upon removal of the tissues, endothelial function was assessed. It is known that endothelial function can refer to the unimpaired production of or availability of NO and/or a balance in the relative contribution of endothelium-derived relaxing and contracting factors (such as ET-1, angiotensin, and oxidants). […] As such, once the tissues were removed from the animals, endothelial cell function was assessed in the experimental groups by myography as percent-relaxation to acetylcholine or sodium nitroprusside subsequent to pre-contraction with 0.3 μM phenylephrine.

[6] = tested on: inflammatory genes (ICAM1, IL-6, IL-1β, MCP1, TGF-β1, VCAM1, TNF-α); experiment: inflammatory gene expression (mRNA transcript levels) in tissues after 6 weeks of treatment; format: in vivo, rat; conditions: 50 mg/kg daily IP
Description: as §1
Furthermore, inflammatory gene expression was assessed in the aorta, heart, brain and kidney by probing for mRNA transcript levels of the various inflammatory genes. Aortic and cardiac collagen synthesis was also assessed by Picrosirius Red staining and Massom-Trichrome staining and quantified by an automated thresholding program.

With `O=C(O)CCCCC1CCSS1` (stereo not drawn) [lipoic acid, alpha lipoic acid, reference compound] the “relaxation of pre-constricted rat aortic segments” value ([1]; 1×10^−4 M) was “relaxed pre-constricted rat aortic segments”.
For `O=C(O)C1CCCN1C(=O)CCCCC(S)CCS` (stereo not drawn), the “reduction of ACE activity (formation of L-histidyl-L-leucine)” value [2] was “effectively reduce ACE activity”, the IC50 ([2]; corrected for thiol content by Ellman's method, read-out: IC50 value recalculated after thiol quantification) was 6.6 µM and the IC50 ([2]; from plot of fluorescence counts against concentration (FIG. 13), read-out: IC50 value, initially found) was roughly 29 µM.
With `O=C(O)C1CCCN1C(=O)CCCCC1CCSS1` [prolyl lipoic acid, L-prolyl lipoic acid] the “blood pressure after a single dose” value ([3]; 50 mg/kg single dose, 12 hours after versus previous 12 hour period) was “significantly reduced blood pressure”, the “effects on blood pressure relative to captopril” value ([3]; 50 mg/kg versus captopril 100 mg/kg (FIG. 20)) was “comparable to the angiotensin converting enzyme inhibitor, captopril” and the “blood pressure, acute administration” value ([3]; 50 mg/kg, SHRSP rats, FIGS. 18-19) was “acutely lowered blood pressure”. For the same molecule, the “reduction of ACE activity (formation of L-histidyl-L-leucine)” value [2] was “effectively reduce ACE activity”, the “CD68 expression in the brain” value [4] was “without affecting CD68 expression” and the “CD68 expression in the kidneys” value [4] was “without affecting CD68 expression”. For the same molecule, the “CD68 expression in the myocardium” value [4] was “without affecting CD68 expression”, the “inflammatory cell recruitment to the heart” value [4] was “favorable effects” and the “inflammatory cell recruitment to the kidney” value [4] was “favorable effects”. For the same molecule, the aortic medial hypertrophy ([4]; H&E sections) was “effects in reducing aortic medial hypertrophy”, the “endothelial function (relaxation to acetylcholine or sodium nitroprusside)” value [5] was “improved endothelial function” and the “inflammatory gene expression in aorta” value ([6]; aorta) was “markedly reduced inflammatory gene expression”. For the same molecule, the “ICAM1 expression in brain” value ([6]; brain) was “some reductions in expression”, the “IL-6 expression in brain” value ([6]; brain) was “some reductions in expression” and the “reduction in inflammatory gene expression in brain” value ([6]; brain, compared with other tissues) was “not as pronounced”. The “inflammatory gene expression in heart” value ([6]; heart) was “markedly reduced inflammatory gene expression”, the “inflammatory gene expression in kidney” value ([6]; kidney) was “markedly reduced inflammatory gene expression” and the “relaxation of pre-constricted rat aortic segments” value ([1]; 1×10^−4 M) was “relaxed pre-constricted rat aortic segments”. For the same molecule, the “relaxation as compared to lipoic acid” value ([1]; 1×10^−4 M, same aortic ring test (FIG. 15)) was “increase in relaxation as compared to lipoic acid” and the “endothelial function in aortic rings (vasodilation following acetylcholine)” value ([1]; rings pre-constricted to EC50 of phenylephrine, acetylcholine 10^−5M) was “improve endothelial function”.
